Results from patent US20150191519A1, “VECTORS ENCODING A PARALYTIC PEPTIDE” (Soricimed Biopharma Inc., priority 2002, published 2015).

Columns and labels:
[1] = test system: human ovarian carcinoma cell line (OV 2008); test: calcium ion uptake by FURA-loaded ovarian carcinoma cells (fluorescence); assay type: cell-based; settings: for calcium uptake by OV-2008 cell line: FURA fluorescence after calcium chloride 2.5 mM, calcium chloride 5.0 mM, FIG. 16
Procedure: A human ovarian carcinoma cell line (OV 2008) was grown in MegaCell supplemented (Sigma Aldrich Chemical Co.) with 3% fetal calf serum (v/v), L-glutamine (584 mg/500 mL), and antibiotics penicillin and streptomycin (50 ug/ml) at 37° C. and in a humidified 5% carbon dioxide atmosphere. After confluence, the cells were harvested by incubation with Trypsin EDTA solution low in calcium and magnesium Dulbecco phosphate buffered saline (DPBS) at 37° C. and gentle shaking to detach them from the culture flask surface. After centrifugation and washing in the calcium-depleted medium, cells were incubated with 5 uM FURA 2 AM for 60 minutes to internalize this calcium sensitive fluorophore. After centrifuging and washing twice with DPBS, cells were allowed to de-esterify the FURA 2 AM for 30 minutes at 37° C., activating the calcium-sensitive FURA. Cells were then incubated with aliquots of a solution of pure soricidin. Fluorescent analysis used excitation at 340 nm and emission at a wavelength of 510 nm. After recording the baseline fluorescence of the cells, a bolus of calcium chloride (to final concentration of 2.5 mM) was delivered to the cell suspension and the fluorescence remeasured. After recording the fluorescence, the sample was treated with a bolus of potassium chloride (final concentration 20 mM) to activate any voltage gated calcium channels. Finally, the cells were treated with another bolus of […] raising the calcium ion concentration to 5.0 mM. The control situation was no treatment with soricidin peptide but with identical other treatments.
This transient receptor potential (TRP) calcium channel was blocked by soricidin. FIG. 16 illustrates

insect nerve tissue = test: calcium ion uptake by excised insect nerve tissue (FURA fluorescence); assay type: cell-based, flour beetle larvae (meal worms); settings: FIG. 17
Procedure: Central nerve pairs running along 5 body segments (including ganglia) were excised from flour beetle larvae (meal worms) and suspended in buffered invertebrate saline containing FURA 2 AM. After 60 minutes, the nerve tissue was removed from this solution, briefly washed in buffered saline and bathed with a solution of pure soricidin for 10 minutes. The nerve tissue was next immersed in a cuvette containing very low calcium ion concentration and a baseline fluorescence value recorded. A bolus of calcium chloride (to a final concentration of 5 mM) was added and, after 5 minutes, the fluorescence was determined. Finally, a bolus of potassium chloride was added to the preparation to a final concentration of 20 mM. The fluorescence was again determined. The control situation was exclusion of the soricidin, substituting instead a sham solution of buffered saline.

[2] = isoelectric pH by capillary isoelectric focusing; assay type: physicochemical; settings: migration time 33.9 min; calibrated with pI standard proteins
Procedure: The isoelectric pH of the shrew peptide soricidin was determined after calibration of the Beckmann-Coulter P/ACE MDQ Capillary Electrophoresis System with proteins of known isoelectric pH (2.75, 5.10, 5.90 and 9.45) and then co-isoelectric focusing of the standards with soricidin. […] The soricidin migration time (33.9 min) provided a pI of 4.20.

soricidin: 54 amino acid paralytic peptide isolated from shrew (Blarina brevicauda) submaxilary saliva gland, sequence of FIG. 1A (DCSQDCAACSILARPAELNTETCILECEGKLSSNDTEGGLCKEFLHPSKVDLPR; listed as Blarina brevicauda)
calcium uptake by OV-2008 cell line ([1]; KCl 20 mM): inhibits calcium uptake | calcium uptake by OV-2008 cell line ([1]; KCl 20 mM, listed as Soricidin): strongly inhibits calcium uptake | TRP calcium channel CaT1 (TRPV6) of ovarian carcinoma cells ([1]; OV-2008): blocked | small increase in calcium uptake in response to potassium ion challenge ([1]; OV-2008, KCl 20 mM): eliminated | dose dependence of inhibition of calcium uptake ([1]; OV-2008, increases in amount caused no additional inhibition): saturated | calcium uptake / calcium channels of insect neural tissue (insect nerve tissue): effectively blocks the general and voltage-gated calcium channels | calcium uptake / calcium channels of insect neural tissue (insect nerve tissue; listed as Soricidin): inhibits calcium uptake | increase in fluorescence (FURA/Calcium complex) less than in control (insect nerve tissue; nerve bathed in pure soricidin 10 minutes, calcium chloride and KCl 20 mM challenge): 92% | isoelectric pH (pI) [2]: 4.20
